In patent US20230089867A1, “CYCLIC PENTAMER COMPOUNDS AS PROPROTEIN CONVERTASE SUBTILISIN/KEXIN TYPE 9 (PCSK9) INHIBITORS FOR THE TREATMENT OF METABOLIC DISORDER” (Novartis AG, priority 2018, published 2023):

Target: human PCSK9 (Homo sapiens, UniProt Q8NBP7)
Assay: PCSK9 ligand binding TR-FRET assay (interference with binding of human PCSK9 to human LDLR)
Details: for Max % inhibition: PCSK9 FRET assay, efficacy (Amax), 100% = 1 uM unlabeled human PCSK9, 0% = DMSO; for IC50: TR-FRET, human PCSK9 Alexa Fluor 647 / human LDLR extracellular domain-Europium Kryptate, read-out: PCSK9 FRET Assay IC50
How it was run: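 Threefold compound dilutions were pre-incubated 30 min with PCSK9, after which 4 nM Europium Kryptate-tagged human LDLR ectodomain was added for a further 2 h.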

human PCSK9, sequence (Q8NBP7 153-692): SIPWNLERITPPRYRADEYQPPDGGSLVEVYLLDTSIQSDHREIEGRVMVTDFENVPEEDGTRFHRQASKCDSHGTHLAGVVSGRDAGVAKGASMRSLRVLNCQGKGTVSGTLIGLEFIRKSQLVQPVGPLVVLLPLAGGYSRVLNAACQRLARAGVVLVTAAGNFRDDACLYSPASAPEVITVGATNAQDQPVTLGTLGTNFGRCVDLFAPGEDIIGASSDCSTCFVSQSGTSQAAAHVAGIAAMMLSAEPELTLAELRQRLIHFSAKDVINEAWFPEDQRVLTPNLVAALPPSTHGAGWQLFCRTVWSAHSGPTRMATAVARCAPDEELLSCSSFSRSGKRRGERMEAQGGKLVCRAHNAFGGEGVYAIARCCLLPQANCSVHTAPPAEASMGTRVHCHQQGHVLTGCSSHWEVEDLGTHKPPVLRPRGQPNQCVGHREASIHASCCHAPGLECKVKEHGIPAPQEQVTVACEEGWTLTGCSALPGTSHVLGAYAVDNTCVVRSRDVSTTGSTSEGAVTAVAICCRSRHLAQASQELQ
human PCSK9, sequence (Q8NBP7 31-152 partner limits assumed): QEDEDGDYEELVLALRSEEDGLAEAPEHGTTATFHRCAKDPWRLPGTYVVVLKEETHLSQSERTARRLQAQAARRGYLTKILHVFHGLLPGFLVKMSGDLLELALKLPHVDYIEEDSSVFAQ

Row | Structure (SMILES) | Max % inhibition [%] | IC50 [nM]
1 | CCC(CC)[C@@H]1CC(=O)N(Cc2ccc(Cl)cc2Oc2ccc(-c3cnc(CN(C)C)n3C)cc2)[C@@H](C)C(=O)N[C@@H](COC)C(=O)N(C)[C@@H](Cc2ccc(Cl)cc2)CC(=O)NC[C@H](C)N(C)C1=O [Compound 40, (2S,5S,8S,13S,16S)-1-(4-chloro-2-(4-(2-((dimethylamino)methyl)-1-methyl-1H-imidazol-5-yl)phenoxy)benzyl)-8-(4-chlorobenzyl)-5-(methoxymethyl)-2,7,13,14-tetramethyl-16-(pentan-3-yl)-1,4,7,11,14-pentaazacyclooctadecane-3,6,10,15,18-pentaone] | 104.99 | 99.6
2 | COC[C@@H]1NC(=O)C(C)N(Cc2c(F)cc(F)cc2Oc2ccc(-c3cnc(CN(C)C)n3C)cc2)C(=O)C[C@@H](Cc2ccccc2)C(=O)N(C)[C@H]2CCCC[C@@H]2NC(=O)C[C@H](Cc2ccc(Cl)cc2)N(C)C1=O (stereo partly drawn) [Compound 41, (4S,7S,14R,16aS,20aS)-14-benzyl-4-(4-chlorobenzyl)-11-(2-(4-(2-((dimethylamino)methyl)-1-methyl-1H-imidazol-5-yl)phenoxy)-4,6-difluorobenzyl)-7-(methoxymethyl)-5,10,16-trimethylhexadecahydrobenzo[l][1,4,7,11,14]pentaazacyclooctadecine-2,6,9,12,15(3H)-pentaone] | 84.34 | 4.7
3 | COC[C@@H]1NC(=O)[C@H](C)N(Cc2ccc(C(F)F)cc2Oc2ccc(-c3cnc(CN(C)C)n3C)cc2)C(=O)C[C@@H](Cc2ccccc2)C(=O)N(C)[C@@H](C)CNC(=O)C[C@H](Cc2ccc(Cl)cc2)N(C)C1=O [Compound 42, (2S,5S,8S,13S,16R)-16-benzyl-8-(4-chlorobenzyl)-1-(4-(difluoromethyl)-2-(4-(2-((dimethylamino)methyl)-1-methyl-1H-imidazol-5-yl)phenoxy)benzyl)-5-(methoxymethyl)-2,7,13,14-tetramethyl-1,4,7,11,14-pentaazacyclooctadecane-3,6,10,15,18-pentaone] | 102.18 | 24.5
4 | COC[C@@H]1NC(=O)[C@H](CCC(=O)OC(C)(C)C)N(Cc2ccc(Cl)cc2Oc2ccc(-c3cnc(CN(C)C)n3C)cc2)C(=O)C[C@@H](Cc2ccccc2)C(=O)N(C)[C@H]2CCCC[C@@H]2NC(=O)C[C@H](Cc2ccc(Cl)cc2)N(C)C1=O [Compound 46, tert-butyl 3-((4S,7S,10S,14R,16aS,20aS)-14-benzyl-11-(4-chloro-2-(4-(2-((dimethylamino)methyl)-1-methyl-1H-imidazol-5-yl)phenoxy)benzyl)-4-(4-chlorobenzyl)-7-(methoxymethyl)-5,16-dimethyl-2,6,9,12,15-pentaoxodocosahydrobenzo[l][1,4,7,11,14]pentaazacyclooctadecin-10-yl]propanoate] | 96.56 | 2.7
5 | COC[C@@H]1NC(=O)[C@H](C)N(Cc2ccc(F)cc2Oc2ccc(-c3cnc(CN(C)C)n3C)cc2)C(=O)C[C@@H](Cc2ccccc2)C(=O)N(C)[C@H]2CCCC[C@@H]2NC(=O)C[C@H](Cc2ccc(Cl)cc2)N(C)C1=O [Compound 48, (4S,7S,10S,14R,16aS,20aS)-14-benzyl-4-(4-chlorobenzyl)-11-(2-(4-(2-((dimethylamino)methyl)-1-methyl-1H-imidazol-5-yl)phenoxy)-4-fluorobenzyl)-7-(methoxymethyl)-5,10,16-trimethylhexadecahydrobenzo[l][1,4,7,11,14]pentaazacyclooctadecine-2,6,9,12,15(3H)-pentaone] | 87.82 | 4.8
6 | COC[C@@H]1NC(=O)[C@H](C)N(Cc2ccc(Cl)cc2Oc2ccc(-c3cnc(CN(C)C)n3C)cc2)C(=O)C[C@@H](Cc2ccccc2)C(=O)N(C)C(C)C(C)NC(=O)C[C@H](Cc2ccc(Cl)cc2)N(C)C1=O (stereo partly drawn) [Compound 50, (2S,5S,8S,16R)-16-benzyl-1-(4-chloro-2-(4-(2-((dimethylamino)methyl)-1-methyl-1H-imidazol-5-yl)phenoxy)benzyl)-8-(4-chlorobenzyl)-5-(methoxymethyl)-2,7,12,13,14-pentamethyl-1,4,7,11,14-pentaazacyclooctadecane-3,6,10,15,18-pentaone] | 101.21 | 41
7 | COC[C@@H]1NC(=O)[C@H](CCF)N(Cc2ccc(Cl)cc2Oc2ccc(-c3cnc(CN4CCCC4)n3C)cc2)C(=O)C[C@@H](Cc2ccccc2)C(=O)N(C)[C@@H](C)CNC(=O)C[C@H](Cc2ccc(Cl)cc2)N(C)C1=O [Compound 54, (2S,5S,8S,13S,16R)-16-benzyl-1-(4-chloro-2-(4-(1-methyl-2-(pyrrolidin-1-ylmethyl)-1H-imidazol-5-yl)phenoxy)benzyl)-8-(4-chlorobenzyl)-2-(2-fluoroethyl)-5-(methoxymethyl)-7,13,14-trimethyl-1,4,7,11,14-pentaazacyclooctadecane-3,6,10,15,18-pentaone] | 92.54 | 4.6

Molecules with a lower IC50, results first:

Row | Max % inhibition [%] | IC50 [nM] | Structure (SMILES)
8 | 100.65 | 2.3 | COC[C@@H]1NC(=O)[C@H](CC(F)(F)F)N(Cc2ccc(Cl)cc2Oc2ccc(-c3cnc(CN(C)C)n3C)cc2)C(=O)C[C@@H](Cc2ccccc2)C(=O)N(C)[C@@H](C)CNC(=O)C[C@H](Cc2ccc(Cl)cc2)N(C)C1=O [Compound 37, (2S,5S,8S,13S,16R)-16-benzyl-1-(4-chloro-2-(4-(2-((dimethylamino)methyl)-1-methyl-1H-imidazol-5-yl)phenoxy)benzyl)-8-(4-chlorobenzyl)-5-(methoxymethyl)-7,13,14-trimethyl-2-(2,2,2-trifluoroethyl)-1,4,7,11,14-pentaazacyclooctadecane-3,6,10,15,18-pentaone]
9 | 101.48 | 2.1 | COC[C@@H]1NC(=O)[C@H](CC(=O)N2CCOCC2)N(Cc2ccc(Cl)cc2Oc2ccc(-c3cnc(CN(C)C)n3C)cc2)C(=O)C[C@@H](Cc2ccccc2)C(=O)N(C)[C@@H](C)CNC(=O)C[C@H](Cc2ccc(Cl)cc2)N(C)C1=O [Compound 38, (2S,5S,8S,13S,16R)-16-benzyl-1-(4-chloro-2-(4-(2-((dimethylamino)methyl)-1-methyl-1H-imidazol-5-yl)phenoxy)benzyl)-8-(4-chlorobenzyl)-5-(methoxymethyl)-7,13,14-trimethyl-2-(2-morpholino-2-oxoethyl)-1,4,7,11,14-pentaazacyclooctadecane-3,6,10,15,18-pentaone]
10 | 104.01 | 0.9 | COC[C@@H]1NC(=O)[C@H](C)N(Cc2c(OCC(F)(F)F)cc(Cl)cc2Oc2ccc(-c3cnc(CN(C)C)n3C)cc2)C(=O)CCC(=O)N(C)[C@H]2CCCC[C@@H]2NC(=O)C[C@H](Cc2ccc(Cl)cc2)N(C)C1=O [Compound 39, (4S,7S,10S,16aS,20aS)-11-(4-chloro-2-(4-(2-((dimethylamino)methyl)-1-methyl-1H-imidazol-5-yl)phenoxy)-6-(2,2,2-trifluoroethoxy)benzyl)-4-(4-chlorobenzyl)-7-(methoxymethyl)-5,10,16-trimethylhexadecahydrobenzo[l][1,4,7,11,14]pentaazacyclooctadecine-2,6,9,12,15(3H)-pentaone]
11 | 94.38 | 1.8 | COC[C@@H]1NC(=O)[C@H](C)N(Cc2ccc(Cl)cc2Oc2ccc(-c3cnc(CN4CCCC4)n3C)cc2)C(=O)C[C@@H](Cc2ccccc2)C(=O)N(C)[C@@H](CCCCN(C)C)CNC(=O)C[C@H](Cc2ccc(Cl)cc2)N(C)C1=O.Cl [Compound 43, (2S,5S,8S,13S,16R)-16-benzyl-1-(4-chloro-2-(4-(1-methyl-2-(pyrrolidin-1-ylmethyl)-1H-imidazol-5-yl)phenoxy)benzyl)-8-(4-chlorobenzyl)-13-(4-(dimethylamino)butyl)-5-(methoxymethyl)-2,7,14-trimethyl-1,4,7,11,14-pentaazacyclooctadecane-3,6,10,15,18-pentaone hydrochloride]
12 | 95.96 | 2.2 | COC[C@@H]1NC(=O)[C@H](C)N(Cc2ccc(Cl)cc2Oc2ccc(-c3cnc(CN(C)C)n3C)cc2)C(=O)C[C@@H](Cc2ccc(F)cn2)C(=O)N(C)[C@@H](C)CNC(=O)C[C@H](Cc2ccc(Cl)cc2)N(C)C1=O [Compound 45, (2S,5S,8S,13S,16R)-1-(4-chloro-2-(4-(2-((dimethylamino)methyl)-1-methyl-1H-imidazol-5-yl)phenoxy)benzyl)-8-(4-chlorobenzyl)-16-((5-fluoropyridin-2-yl)methyl)-5-(methoxymethyl)-2,7,13,14-tetramethyl-1,4,7,11,14-pentaazacyclooctadecane-3,6,10,15,18-pentaone]
13 | 99.12 | 1.7 | [2H]C([2H])([2H])N(Cc1ncc(-c2ccc(Oc3cc(Cl)ccc3CN3C(=O)C[C@@H](Cc4ccccc4)C(=O)N(C)[C@@H](C)CNC(=O)C[C@H](Cc4ccc(Cl)cc4)N(C)C(=O)[C@H](COC)NC(=O)[C@@H]3CC)cc2)n1C)C([2H])([2H])[2H] [Compound 49, (2S,5S,8S,13S,16R)-16-benzyl-1-(2-(4-(2-((bis(methyl-d3)amino)methyl)-1-methyl-1H-imidazol-5-yl)phenoxy)-4-chlorobenzyl)-8-(4-chlorobenzyl)-2-ethyl-5-(methoxymethyl)-7,13,14-trimethyl-1,4,7,11,14-pentaazacyclooctadecane-3,6,10,15,18-pentaone]
14 | 94.86 | 0.5 | COC[C@@H]1NC(=O)[C@H](C)N(Cc2ccc(Cl)cc2Oc2cc(F)c(-c3cnc(CN4CCCC4)n3C)c(F)c2)C(=O)C[C@@H](Cc2ccccc2)C(=O)N(C)[C@@H](C)CNC(=O)C[C@H](Cc2ccc(Cl)cc2)N(C)C1=O [Compound 51, (2S,5S,8S,13S,16R)-16-benzyl-1-(4-chloro-2-(3,5-difluoro-4-(1-methyl-2-(pyrrolidin-1-ylmethyl)-1H-imidazol-5-yl)phenoxy)benzyl)-8-(4-chlorobenzyl)-5-(methoxymethyl)-2,7,13,14-tetramethyl-1,4,7,11,14-pentaazacyclooctadecane-3,6,10,15,18-pentaone]
